# Like-named read-outs stand apart in the source and are kept apart here. Marks after values point to notes of the source that are not given here.
# How the values were obtained:
# [1] = tested on: Aspergillus fumigatus (RCMB 2003); test: Antimicrobial screening, disc diffusion; format: cell-based; conditions: for zone of inhibition at 1000 µg/mL: RCMB2003, Standard Antibiotics (1 mg/ml), read-out: Diameter of inhibition zone; for Diameter of inhibition zone: compounds isolated from Cunninghamella elegans
# Experimental: (§1) The alcoholic extracts obtained were used for testing their antimicrobial activity. Each extract (0.5 g) was dissolved in 10 ml water. Same concentrations for the successive extracts (using diethyl ether, chloroform, ethyl acetate and n-butanol) were also prepared.
# (§2) The representatives of Gram negative bacteria, namely Salmonella typhimuium (RCMB 0104), Escherichia coli (RCMB 0103), Pseudomonas aeruginosa (RCMB 0102) and Gram positive bacteria, namely Bacillus subtilis (RCMB 0107), Staphylococcus aureus (RCMB 0106), Streptococcus pyogenes (RCMB 0109), unicellular fungi, namely Candida albicans (RCMB 5002) and filamentous fungi, namely Aspergillus fumigatus (RCMB 2003) and Penicllium expansum (RCMB 1006) were used as test organisms (RCMB: The Regional Center for Mycology and Biotechnology, Al-azhar University Nasser City, Cairo, Egypt).
# (§3) For antimicrobial screening the well known disc diffusion and agar well diffusion methods were used, together with the determination of minimum inhibitory concentration (MIC), see Duguid et al., Microbial Infections, The English Language Book Society, Churchill Livingston, Edingburgh, London, 1978; vol. 1, page 110.
# (§4) Disc diffusion method: The agar disc diffusion method is employed for the determination of antimicrobial activities of the extracts of the investigated fungal species. Sterilized paper discs (Whatman No. 1) ([…]) were separately soaked in the extracts and transferred onto the surface of growth media seeded with the test organism. After incubation period, following suitable conditions for the test organism, the diameter of the inhibition zone around the discs was measured in millimeters. The obtained result was the mean of three experiments.
# (§5) Each fungal species was grown on malt extract media at 28±2° C. for 14 days. The metabolites of the fungal species were screened for antimicrobial activity. The inhibition zones around each disc were measured, in millimeter, and recorded (Tables 1).
# [2] = tested on: Candida albicans (RCMB 5002); test: Antimicrobial screening, disc diffusion; format: cell-based; conditions: for zone of inhibition at 1000 µg/mL: RCMB5002, Standard Antibiotics (1 mg/ml), read-out: Diameter of inhibition zone; for Diameter of inhibition zone: compounds isolated from Cunninghamella elegans
# Experimental: as §1, §2, §3, §4, §5
# [3] = tested on: Penicllium expansum (RCMB 1006); test: Antimicrobial screening, disc diffusion; format: cell-based; conditions: Penicillium expansum; for zone of inhibition at 1000 µg/mL: RCMB1006, Standard Antibiotics (1 mg/ml), read-out: Diameter of inhibition zone; for Diameter of inhibition zone: compounds isolated from Cunninghamella elegans
# Experimental: as §1, §2, §3, §4, §5
# [4] = tested on: Bacillus subtilis (RCMB 0107); test: Antimicrobial screening, disc diffusion; format: cell-based
# Experimental: as §1, §2, §3, §4, §5
# [5] = tested on: Escherichia coli (RCMB 0103); test: Antimicrobial screening, disc diffusion; format: cell-based
# Experimental: as §1, §2, §3, §4, §5
# [6] = tested on: Pseudomonas aeruginosa (RCMB 0102); test: Antimicrobial screening, disc diffusion; format: cell-based; conditions: Pseudomonas aeurginosa
# Experimental: as §1, §2, §3, §4, §5
# [7] = tested on: Staphylococcus aureus (RCMB 0106); test: Antimicrobial screening, disc diffusion; format: cell-based
# Experimental: as §1, §2, §3, §4, §5
# [8] = tested on: Streptococcus pyogenes (RCMB 0109); test: Antimicrobial screening, disc diffusion; format: cell-based
# Experimental: as §1, §2, §3, §4, §5
# [9] = tested on: Salmonella typhimuium (RCMB 0104); test: Antimicrobial screening, disc diffusion; format: cell-based; conditions: Salmonella typhimuim
# Experimental: as §1, §2, §3
# as §4, with “millimeters.” for “millimeters. The obtained result was the mean of three experiments.”
# Each fungal species was grown on malt extract media at 28±2° C. for 14 days. The metabolites of the fungal species were screened for antimicrobial activity.
# [10] = tested on: Staphylococcus aureus; test: Minimum inhibitory concentration, agar well diffusion; format: cell-based; conditions: for MIC: read-out: Minimum inhibitory concentration
# Description: as §3
# Agar well diffusion method: On the other hand, the agar well diffusion method was employed for determination of the minimum inhibitory concentration (MIC). The test organisms were separately seeded in the agar medium. The wells (10 mm in diameter) were cut from the agar and […] (different concentrations) was transferred into them. After incubation period, following suitable conditions for the test organism, the diameter of the inhibition zone around the discs was measured in millimeters. The obtained result was the mean of three experiments.
# The minimum inhibitory concentration (MIC) of Cunninghamella blakesleeana, C. elegans, C. homothallica and successive extracts and isolated compounds of Cunninghamella elegans against Staphylococcus aureus was determined.
# Minimum inhibitory concentration (MIC): The lowest concentration of an antimicrobial agent that will inhibit a visible growth of a microorganism after overnight incubation.
# [11] = tested on: Staphylococcus aureus infected wounds; test: Wound healing activity, excision wound model; format: in vivo, guinea pig
# Experimental: Swiss albino mice (20-25 g), male Sprague-Dawley rats (160-180 g) and male guinea pigs (240-260 g) were employed in the study. The animals were left for 2 weeks at room conditions to ensure stabilization before use. They were maintained on standard pellet diet and water ad libitum throughout the experiment. • a) Acute Toxicity: Mice were divided into groups of 6 and the methanol extracts of C. blakesleeana, C. elegans and C. homothallica were administered orally in increasing doses. […] Rats of the 1^St group were given a vehicle (1% v/v Tween 80) in a dose of 5 ml kg^−1 and left as normal control. Rats of the 2nd, 3rd, and 4th groups were administered the methanol extracts of C. blakesleeana, C. elegans and C. homothallica, respectively in a dose of 200 mg kg^−1. All medications were administered orally via the aid of an oral tube for 35 days. […] At the end of the experimental period, blood samples (2 mL) were collected from the retro-orbital venous plexus of each rat (under ether anesthesia) into clean centrifuge tubes. The blood samples were allowed to clot at room temperature for 30 min after which they were centrifuged at 10,000 rpm for 5 minutes. Sera were separate with Pasteur pipette into sterile serum sample tubes and used for biochemical assay.
# Measurement of Liver and Kidney Function Markers: • Liver functions were evaluated by measuring the serum activity of aspartate aminotransferase (AST) and alanine aminotransferase (ALT) following the method of Reitman and Frankel, Am. J. Clin. Path., 28: 55-60, alkaline phosphatase enzyme (ALP) by the method of Babson et al., Clinical Chemistry, 12: 482-490. Serum levels of total bilirubin, total proteins and albumin were also assayed. Globulin was obtained from the difference between total proteins and albumin. Serum concentrations of uric acid, urea and creatinine were determined colormetrically as measures of kidney functions. All measurements were carried out by protocols well known in the art. • c) Wound Healing Activity: The excision wound model was used to monitor wound contraction and wound closure time. Four groups of male guinea pigs were used in the experiment with 6 animals in each group. At the beginning of the experiment, the dorsal skin of each guinea pig was shaved with an electric clipper. After 24 hours, all animals were anesthetized by diethyl ether and the shaved areas were sterilized with 70% alcoholic solution. A predetermined dorsal area (15 mm×20 mm) was inflicted by cutting away a full thickness of skin (2 mm depth) using toothed forceps, scalpel and pointed scissors. A fresh surgical blade was used for the perpendicular cut in each animal and tension of skin was kept constant during the procedure. Local infection with Staphylococcus aureus was introduced into wounds using 0.5 mL of 10^8 bacteria mL^−1 inoculums. The wounds were left undressed to the open environment and the animals were kept individually in separate cages. • Wounds treatment: Wounds were air exposed and treatment began 24 h after injury. Wounds of the control animals were treated with the vehicle (1% v/v Tween 80). Guinea pigs of the second and third group were treated with total alcohol extract of C. elegans and the isolated compound (adenosine) in a concentration of 5 mg mL^−1, while animals of the fourth group were medicated with latamoxef (Moxalactam)® in a concentration of 30 μg mL^−1 (Reference group). The vehicle, extract, and reference drug were applied topically on the wound surface once a day for 18 days. […] of each tested material was applied slowly, using an insulin syringe, from the central point extending outside the wound area to ensure inclusion of the edges. Swabs were taken on day 5 to confirm the presence of the expected organisms in the pus. • Assessment of wound healing: The wound areas were measured while the animals were under anaesthesia on days 0, 4, 7, 10, 14, and 18 post-wounding by tracing the wound areas onto a transparent tracing paper. […]
# [12] = compounds isolated from Cunninghamella elegans
# [13] = topical 30 μg mL^−1 once a day, n = 6
# [14] = topical 30 μg mL^−1 once a day, n = 6, listed as latamoxef
Compound,Diameter of inhibition zone [1] [mm],"Diameter of inhibition zone [4, 12] [mm]",Diameter of inhibition zone [2] [mm],"Diameter of inhibition zone [5, 12] [mm]",Diameter of inhibition zone [3] [mm],"Diameter of inhibition zone [6, 12] [mm]","Diameter of inhibition zone [7, 12] [mm]","Diameter of inhibition zone [8, 12] [mm]",further results
"Clc1ccccc1C(c1ccccc1)(c1ccccc1)n1ccnc1 [Clotrimazole, reference compound]",–,–,–,–,–,–,–,–,zone of inhibition at 1000 µg/mL [1]: 26 ± 0.1 mm; zone of inhibition at 1000 µg/mL [2]: 18 ± 0.1 mm; zone of inhibition at 1000 µg/mL [3]: 23 ± 0.3 mm
"CCCCCCCCCCCCCCCC(=O)O [Compound 1, palmitic acid]",00.0,00.0,00.0,00.0,00.0,00.0,13.0,00.0,"Diameter of inhibition zone [9, 12]: 00.0 mm"
"CCCCCCCC/C=C\CCCCCCCC(=O)O [Compound 2, oleic acid]",00.0,00.0,00.0,00.0,00.0,00.0,11.0 ± 0.3,00.0,"Diameter of inhibition zone [9, 12]: 00.0 mm"
"CCCCCCCCCCCCCCCCCC(=O)O [Compound 3, stearic acid]",00.0,00.0,00.0,00.0,00.0,00.0,15.0 ± 0.5,00.0,"Diameter of inhibition zone [9, 12]: 00.0 mm"
"O=C(O)c1cc(O)c(O)c(O)c1 [Compound 7, 3,4,5-trihydroxy-benzoic acid]",00.0,00.0,00.0,00.0,00.0,00.0,05.0 ± 0.5,00.0,MIC ([10]; against Staphylococcus aureus): 130 µg/mL
"CCC(C)n1ncn(-c2ccc(N3CCN(c4ccc(OCC5COC(Cn6cncn6)(c6ccc(Cl)cc6Cl)O5)cc4)CC3)cc2)c1=O (stereo not shown) [Itraconazole, reference compound]",–,–,–,–,–,–,–,–,zone of inhibition at 1000 µg/mL [1]: 28 ± 0.5 mm; zone of inhibition at 1000 µg/mL [2]: 26 ± 0.2 mm; zone of inhibition at 1000 µg/mL [3]: 27 ± 0.1 mm
"CO[C@@]1(NC(=O)C(C(=O)O)c2ccc(O)cc2)C(=O)N2C(C(=O)O)=C(CSc3nnnn3C)CO[C@@H]21 (stereo partly shown) [Latamoxef, latamoxef, reference compound]",–,–,–,–,–,–,–,–,"wound contraction ([11]; Day 14, topical 30 μg mL^−1): 100%; Wound area on day 0 ([11]; day 0, topical 30 μg mL^−1 once a day, n = 6): 300 ± 0.0 mm^2; Wound area on day 4 ([11]; day 4, topical 30 μg mL^−1 once a day, n = 6): 219.4 ± 9.37** mm^2; Wound area on day 7 ([11]; day 7, topical 30 μg mL^−1 once a day, n = 6): 146.4 ± 5.60*** mm^2; Wound area on day 10 [11, 13]: 42.6 ± 1.85*** mm^2; Wound area on day 10 [11, 14]: 42.6±1.85 mm^2; Wound area on day 14 [11, 13]: 0.0 ± 0.0 mm^2; Wound area on day 14 [11, 14]: 0.0 mm^2"
"CC1(C)S[C@@H]2[C@H](NC(=O)Cc3ccccc3)C(=O)N2[C@H]1C(=O)O [Penicillin G, reference compound]",–,–,–,–,–,–,–,–,Diameter of inhibition zone ([4]; Standard Antibiotics (1 mg/ml)): 32.5 ± 0.5 mm; Diameter of inhibition zone ([5]; Standard Antibiotics (1 mg/ml)): 33.5 ± 0.8 mm; Diameter of inhibition zone ([6]; Standard Antibiotics (1 mg/ml)): 28.3 ± 0.1 mm; Diameter of inhibition zone ([7]; Standard Antibiotics (1 mg/ml)): 29.5 ± 0.8 mm; Diameter of inhibition zone ([8]; Standard Antibiotics (1 mg/ml)): 31.4 ± 0.1 mm; Diameter of inhibition zone ([9]; Standard Antibiotics (1 mg/ml)): 34.3 ± 0.4 mm
"[H]/N=C(/N)N[C@H]1[C@H](O)[C@@H](O)[C@H](O[C@@H]2O[C@@H](C)[C@](O)(C=O)[C@H]2O[C@@H]2O[C@@H](CO)[C@H](O)[C@@H](O)[C@@H]2NC)[C@@H](N/C(N)=N\[H])[C@@H]1O [Streptomycin, reference compound]",–,–,–,–,–,–,–,–,Diameter of inhibition zone ([4]; Standard Antibiotics (1 mg/ml)): 29.0 ± 0.4 mm; Diameter of inhibition zone ([5]; Standard Antibiotics (1 mg/ml)): 25.0 ± 0.3 mm; Diameter of inhibition zone ([6]; Standard Antibiotics (1 mg/ml)): 24.0 ± 0.1 mm; Diameter of inhibition zone ([7]; Standard Antibiotics (1 mg/ml)): 25.0 ± 0.2 mm; Diameter of inhibition zone ([8]; Standard Antibiotics (1 mg/ml)): 24.0 ± 0.4 mm; Diameter of inhibition zone ([9]; Standard Antibiotics (1 mg/ml)): 28.0 ± 0.3 mm
"CN[C@H](CC(C)C)C(=O)N[C@H]1C(=O)N[C@@H](CC(N)=O)C(=O)N[C@H]2C(=O)N[C@H]3C(=O)N[C@H](C(=O)N[C@H](C(=O)O)c4cc(O)cc(O)c4-c4cc3ccc4O)[C@H](O)c3ccc(c(Cl)c3)Oc3cc2cc(c3O[C@@H]2O[C@H](CO)[C@@H](O)[C@H](O)[C@H]2O[C@H]2C[C@](C)(N)[C@H](O)[C@H](C)O2)Oc2ccc(cc2Cl)[C@H]1O [Vancomycin, reference compound]",–,–,–,–,–,–,–,–,MIC ([10]; Staphylococcus aureus): 0.75 µg/mL
Gentamicin [reference compound],–,–,–,–,–,–,–,–,Minimum inhibitory concentration ([10]; against Staphylococcus aureus): 0.35 µg/mL

# Reference: patent US20130224239A1, “ALCOHOLIC EXTRACT OF FUNGI OF GENUS […] AND USE THEREOF” (KING SAUD UNIVERSITY, priority 2011, published 2013)
